Laboratory results as given in patent publication US12553028B2, “Method to generate induced oligodendrocyte-lineage cells and treatment using such cells” (ACADEMIA SINICA, priority 2018, dated 2026).
Entries after “also recorded” stand apart in the source; their conditions may differ.

Key:
[1] = system: human primary skin fibroblasts; assay: Generation of induced OLGs from skin fibroblasts by chemical treatment (morphology / conversion); format: cell-based; settings: for morphology of induced OLGs when replacing VPA: replaces VPA at the first step induction, compared to the original cocktail
Protocol: (§1) Cells (1×10^4) were plated on each well of a 24-well plate. Culture in HG-DMEM (Life technologies) supplement with 10% fetal bovine serum (FBS) (Hyclone) for 2 days, replace the medium with Knockout medium supplement with 1% N2 supplement, 1% Albumax, 1% NEAA (treatment medium, all form Life technologies) or DMEM/F12 with 1% N2, 1% B27, 20 ng/mL PDGF-AA, EGF, bFGF and 10 ng/mL NT3 and added the different treatment chemical compound cocktails, The final condition are 3 mM Valproic acid for 2 days, 10 μM Y27632, 10 μM SU9516, 10 μM Forskolin (FSK) (Tocris) for 1 days; or 10 μM Mocetinostat or Pracinostat for 2 days, 10 μM Y27632, 10 μM SU9516, 10 μM Forskolin (FSK) (Tocris) for 1 days.

[2] = system: human primary skin fibroblasts; assay: Immunofluorescence assay of oligodendrocyte markers on induced cells; format: cell-based
Protocol: as §1
The induced OLGs were fixed with 4% formaldehyde for […] at room temperature. After washing with 1×PBS, cells were permeabilized with 0.03% Triton X-100 for 5 min. The cells were washed twice with 1×PBS, and then were incubated with primary antibodies [against Olig2 antibody (1:100; Merck millipore), Nkx2.2 (1:100; Stanta Cruz), O4 antibody (1:100; Merck millipore), MBP antibody (1:100; Proteintech), PDGFRα antibody (1:100; R&D systems)] and 4′,6-diamidino-2-phenylindole (DAPI) (1:1500; Life technologies) in blocking buffer (0.02% BSA in PBS) for overnight at 4° C. Cells were washed twice in 1×PBS, followed by an incubation in CF555 goat anti-rabbit secondary antibody (1:200; Life technologies), CF488 goat anti-rabbit secondary antibody (1:200; Biotium), CF555 goat anti-mouse secondary antibody (1:200; Life technologies), CF488 goat anti-mouse secondary antibody (1:200; Biotium), CF555 goat anti-rat secondary antibody (1:200; Life technologies) in blocking buffer for 1 hr in the dark at room temperature. Cells were washed twice in 1×PBS, and the cells will be keeping in 1×PBS. Fluorescence was analyzed by using a fluorescence microscope. The fluorescence intensity of each image was analyzed by an image analysis software (Image-Pro plus 4.5 software, MD, USA). Each immunofluorescence image was quantified more than 300 cells per field.

CCCCc1nc2cc(/C=C/C(=O)NO)ccc2n1CCN(CC)CC [Pracinostat, (E)-3-(2-butyl-1-(2-(diethylamino)ethyl)-1H-benzo[d]imidazol-5-yl)-N-hydroxyacrylamide]
morphology of induced OLGs when replacing VPA [1]: more mature oligodendroglia morphology | MBP expression (immunofluorescence) [2]: expressed; also recorded: stronger expression | O4 expression (immunofluorescence) [2]: expressed; also recorded: stronger expression

COc1ccc2c(c1)/C(=C/c1cnc[nH]1)C(=O)N2 [SU9516, (Z)-3-((1H-imidazol-5-yl)methylene)-5-methoxyindolin-2-one]
morphological change of fibroblasts [1]: domed-shape formation

Nc1ccccc1NC(=O)c1ccc(CNc2nccc(-c3cccnc3)n2)cc1 [Mocetinostat, N-(2-aminophenyl)-4-((4-(pyridin-3-yl)pyrimidin-2-ylamino)methyl)benzamide]
morphology of induced OLGs when replacing VPA [1]: more mature oligodendroglia morphology | MBP expression (immunofluorescence) [2]: expressed; also recorded: stronger expression | O4 expression (immunofluorescence) [2]: expressed; also recorded: stronger expression

COc1ccc2c(c1)c(C1=C(c3c[nH]c4ccccc34)C(=O)NC1=O)cn2CCCN(C)C [Go6983, 3-{1-[3-(Dimethylamino)propyl]-5-methoxy-1H-indol-3-yl}-4-(1H-indol-3-yl)-1H-pyrrole-2,5-dione]
conversion of fibroblasts into OLG like cells [1]: dispensable for the conversion process | dendrite-like formation ([1]; Go6983 together with Y27632 and SU9516): promoted the dendrite-like formation

C=C[C@@]1(C)CC(=O)[C@]2(O)[C@@]3(C)[C@@H](O)CCC(C)(C)[C@@H]3[C@H](O)[C@H](OC(C)=O)[C@@]2(C)O1 [forskolin, (3R,4aR,5S,6S,6aS,10S,10aR, 10bS)-6,10,10b-Trihydroxy-3,4a,7,7,10a-pentamethyl-1-oxo-3-vinyldodecahydro-1H-benzo[f]chromen-5-yl acetate]
promotion of the conversion (screen for supporting factors) ([1]; screen of 22 drugs on the YSG cocktail after pre-treating with VPA): significantly promoted the conversion

CCCC(CCC)C(=O)O [valproic acid, 2-Propylpentanoic acid]
reprogramming efficiency ([1]; pretreating for 2 days before Y27632, SU9516, Go6983): enhance the reprogramming efficiency

C[C@@H](N)[C@H]1CC[C@H](C(=O)Nc2ccncc2)CC1 [Y27632, Trans-4-[(1R)-1-Aminoethyl]-N-(4-pyridinyl)cyclohexane-carboxamide]
morphological change of fibroblasts [1]: dendritic-like morphological change
